Reference: patent publication US9464076B2, “Benzothiophene derivative” (Daiichi Sankyo Company, Limited, priority 2013, dated 2016)
Where a name gives a salt, the structure may show the parent alone.

Tests used:
[1] = target: PDE10A (Homo sapiens (Human), UniProt Q9Y233); assay: Measurement of PDE10A inhibitory activity-2 (PDE10A fraction prepared from MOLT-4 cells); format: biochemical; conditions: PDE10A fraction from MOLT-4 cells (peak around 250 mM NaCl)
Method: A human acute lymphoblastic lymphoma T cell line MOLT-4 (which can be purchased under ATCC No. CRL-1582 from ATCC) was cultured in an RPMI1640 medium containing 10% fetal bovine serum to obtain 5×10^8 MOLT-4 cells. The cells were recovered by centrifugation and suspended in 10 ml of buffer solution A (25 mM Tris-HCl, 5 mM 2-mercaptoethanol, 2 mM benzamidine, 2 mM EDTA, and 0.1 mM 4-(2-aminoethyl)benzenesulfonyl hydrochloride, pH 7.5). The cells were homogenized using a Polytron homogenizer and centrifuged (4° C., 25,000 g, 10 minutes). Then, the supernatant was further ultracentrifuged (4° C., 100,000 g, 60 minutes). The obtained supernatant was filtered through a 0.2 μm filter to obtain a soluble fraction.
HiTrap Q HP column (5 ml×2, GE Healthcare Japan Corp.) equilibrated with buffer solution A was charged with the obtained soluble fraction. Phosphodiesterase was eluted with 300 ml of buffer solution A containing a linear gradient solution of 0 to 0.8 M NaCl to recover sixty 5-ml fractions. Each fraction was tested for cAMP-metabolizing phosphodiesterase activity.
On the other hand, total RNA was prepared from Jurkat cells, one type of human T cell, and similarly subjected to RT-PCR. […] Eur J Biochem. 1999, 266 (3), 1118-2 has reported that PDE10A from the rat striatum and testis is eluted as an active peak centered around 250 mM NaCl.
For these reasons, this fraction was used as a solution for the evaluation of PDE10A inhibitory activity. The obtained solution was used to calculate the inhibitory activity (IC50) of a test compound in the same way as in the aforementioned test.

[2] = tested on: Male C57BL/6 Cr mice; assay: Test on suppression of phencyclidine-induced hyperlocomotion in mice; format: in vivo, mouse; conditions: locomotor activity, test compound 10 mg/kg oral, phencyclidine 5 mg/kg s.c. approx. 1 hour later, measured for 1 hour; for inhibition in vivo at 10 mg/kg: Mus musculus, po, 1 h
Method: Male C57BL/6 Cr mice (Japan SLC, Inc.) (8 weeks old) were used in the experiment. A test compound was suspended at 1 mg/mL in a 0.5% hydroxypropylcellulose solution to prepare a suspension for administration. The suspension of the test compound or a solvent (0.5% hydroxypropylcellulose solution) was orally administered at a dose of 10 mL/kg to each mouse. After the administration, the mouse was immediately placed in a locomotor activity measurement apparatus (Muromachi Kikai Co., Ltd., locomotor activity measurement system SUPERMEX). Approximately 1 hour later, phencyclidine (5 mg/10 mL/kg) or a solvent (10 mL/kg saline) was subcutaneously administered to the mouse. The locomotor activity was measured from immediately after the subcutaneous administration to 1 hour later.
Percent inhibition exceeding 100 means that when the activity of the phencyclidine administration control group was defined as 100, the activity of the group given a test compound was lower than that of the solvent administration control group.

PDE10A, sequence (Q9Y233 whole entry): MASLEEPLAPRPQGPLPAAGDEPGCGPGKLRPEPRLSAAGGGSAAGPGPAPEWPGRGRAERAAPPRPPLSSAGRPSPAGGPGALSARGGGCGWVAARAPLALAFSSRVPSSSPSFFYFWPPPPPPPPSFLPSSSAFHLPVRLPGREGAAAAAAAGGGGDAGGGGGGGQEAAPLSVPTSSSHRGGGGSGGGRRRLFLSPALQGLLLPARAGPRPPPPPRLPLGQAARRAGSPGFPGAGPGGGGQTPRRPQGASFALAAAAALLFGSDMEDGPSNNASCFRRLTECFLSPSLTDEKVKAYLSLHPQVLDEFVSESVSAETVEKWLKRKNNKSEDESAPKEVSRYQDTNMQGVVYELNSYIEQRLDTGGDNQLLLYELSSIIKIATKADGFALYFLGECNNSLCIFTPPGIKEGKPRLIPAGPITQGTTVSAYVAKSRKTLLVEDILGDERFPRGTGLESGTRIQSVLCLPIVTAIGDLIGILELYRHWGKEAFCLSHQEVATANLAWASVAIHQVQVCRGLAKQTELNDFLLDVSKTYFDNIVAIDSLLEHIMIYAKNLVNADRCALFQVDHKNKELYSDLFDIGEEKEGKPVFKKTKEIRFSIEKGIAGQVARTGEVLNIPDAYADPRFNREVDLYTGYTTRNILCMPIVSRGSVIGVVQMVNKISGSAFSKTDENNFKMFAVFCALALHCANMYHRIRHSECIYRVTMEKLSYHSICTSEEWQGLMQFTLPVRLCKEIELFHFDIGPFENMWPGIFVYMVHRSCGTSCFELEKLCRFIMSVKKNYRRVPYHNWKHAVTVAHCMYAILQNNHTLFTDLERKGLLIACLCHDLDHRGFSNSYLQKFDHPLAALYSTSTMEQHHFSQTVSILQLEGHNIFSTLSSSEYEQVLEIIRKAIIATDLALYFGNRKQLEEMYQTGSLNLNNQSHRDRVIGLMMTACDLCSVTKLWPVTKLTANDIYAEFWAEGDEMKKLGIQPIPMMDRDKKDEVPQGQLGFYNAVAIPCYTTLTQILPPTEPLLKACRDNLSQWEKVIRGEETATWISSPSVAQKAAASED

## COCc1ccc(C(C)=O)c2sc(C(=O)Nc3cc(C(C)(C)O)c4ccccc4n3)c(C)c12 [Example 26, 7-Acetyl-N-(4-(2-hydroxypropan-2-yl)quinolin-2-yl)-4-(methoxymethyl)-3-methylbenzo[b]thiophene-2-carboxamide]
[1]
  IC50: 1.8 nM
[2]
  inhibition in vivo at 10 mg/kg: 84%

## COCc1ccc(C(C)=O)c2sc(C(=O)Nc3cc(CN4CCN(C)CC4)c4ccccc4n3)c(C)c12 [Example 125, 7-Acetyl-4-(methoxymethyl)-3-methyl-N-(4-((4-methylpiperazin-1-yl)methyl)quinolin-2-yl)benzo[b]thiophene-2-carboxamide]
[1]
  IC50: 0.8 nM
[2]
  inhibition in vivo at 10 mg/kg: 86%

## COCc1ccc(C(=O)C(C)C)c2sc(C(=O)Nc3cc(CN4CC[C@@H](O)C4)c4ccccc4n3)c(C)c12 [Example 59, (R)—N-(4-((3-Hydroxypyrrolidin-1-yl)methyl)quinolin-2-yl)-7-isobutyryl-4-(methoxymethyl)-3-methylbenzo[b]thiophene-2-carboxamide dihydrochloride]
[1]
  IC50: 0.31 nM
[2]
  inhibition in vivo at 10 mg/kg: 67%

## COCc1ccc(C(C)=O)c2sc(C(=O)Nc3ccc4ccccc4n3)c(C)c12 [Example 49, 7-Acetyl-4-(methoxymethyl)-3-methyl-N-(quinolin-2-yl)benzo[b]thiophene-2-carboxamide]
[2]
  inhibition in vivo at 10 mg/kg: 104%

## COCCOCc1cccc2nc(NC(=O)c3sc4c(C(C)=O)ccc(COC)c4c3C)ccc12 [Example 71, 7-Acetyl-N-(5-((2-methoxyethoxy)methyl)quinolin-2-yl)-4-(methoxymethyl)-3-methylbenzo[b]thiophene-2-carboxamide hydrochloride]
[1]
  IC50: 0.75 nM
[2]
  inhibition in vivo at 10 mg/kg: 89%

## COCc1ccc(C(C)=O)c2sc(C(=O)Nc3ccc4c(COC(=O)[C@H](C)N)cccc4n3)c(C)c12 [Example 86, (S)-(2-(7-Acetyl-4-(methoxymethyl)-3-methylbenzo[b]thiophene-2-carboxamido)quinolin-5-yl)methyl-2-aminopropanoate]
[1]
  IC50: 1.1 nM
[2]
  inhibition in vivo at 10 mg/kg: 88%

## COCc1ccc(C(C)=O)c2sc(C(=O)Nc3cc(N)c4ccccc4n3)c(C)c12 [Example 54, 7-Acetyl-N-(4-aminoquinolin-2-yl)-4-(methoxymethyl)-3-methylbenzo[b]thiophene-2-carboxamide]
[1]
  IC50: 0.054 nM
[2]
  inhibition in vivo at 10 mg/kg: 68%

## [2H]C([2H])(OC)c1ccc(C(C)=O)c2sc(C(=O)Nc3cc(C([2H])([2H])N4CC[C@@H](O)C4)c4ccccc4n3)c(C)c12 [Example 116, (R)-7-Acetyl-N-(4-((3-hydroxypyrrolidin-1-yl)(^2H2)methyl)quinolin-2-yl)-4-(methoxy(^2H2)methyl)-3-methylbenzo[b]thiophene-2-carboxamide]
[1]
  IC50: 0.15 nM
[2]
  inhibition in vivo at 10 mg/kg: 180%

## [2H]C([2H])([2H])OCc1ccc(C(C)=O)c2sc(C(=O)Nc3ccc4c(C(=O)N5CC(OC)C5)cccc4n3)c(C)c12 [Example 121, 7-Acetyl-N-(5-((3-methoxyazetidin-1-yl)carbonyl)quinolin-2-yl)-4-((^2H3)methoxymethyl)-3-methylbenzo[b]thiophene-2-carboxamide]
[1]
  IC50: 0.57 nM
[2]
  inhibition in vivo at 10 mg/kg: 59%

## COCc1ccc(C(C)=O)c2sc(C(=O)Nc3cc(CN4CC[C@@H](F)C4)c4ccccc4n3)c(C)c12 [Example 45, (R)-7-Acetyl-N-(4-((3-fluoropyrrolidin-1-yl)methyl)quinolin-2-yl)-4-(methoxymethyl)-3-methylbenzo[b]thiophene-2-carboxamide]
[1]
  IC50: 0.5 nM
[2]
  inhibition in vivo at 10 mg/kg: 97%

## COCc1ccc(C(C)=O)c2sc(C(=O)Nc3cc(N4CCN(C)CC4)c4ccccc4n3)c(C)c12 [Example 57, 7-Acetyl-4-(methoxymethyl)-3-methyl-N-(4-(4-methylpiperazin-1-yl)quinolin-2-yl)benzo[b]thiophene-2-carboxamide]
[1]
  IC50: 1.6 nM
[2]
  inhibition in vivo at 10 mg/kg: 86%

## COCc1ccc(C(C)=O)c2sc(C(=O)Nc3ccc4c(COP(=O)(O)O)cccc4n3)c(C)c12 [Example 87, (2-(7-Acetyl-4-(methoxymethyl)-3-methylbenzo[b]thiophene-2-carboxamido)quinolin-5-yl)methyl dihydrogen phosphate hydrochloride]
[1]
  IC50: 0.6 nM
[2]
  inhibition in vivo at 10 mg/kg: 92%

## COCc1ccc(C(C)=O)c2sc(C(=O)Nc3ccc4c(COCCO)cccc4n3)c(C)c12 [Example 72, 7-Acetyl-N-(5-((2-hydroxyethoxy)methyl)quinolin-2-yl)-4-(methoxymethyl)-3-methylbenzo[b]thiophene-2-carboxamide hydrochloride]
[1]
  IC50: 0.54 nM
[2]
  inhibition in vivo at 10 mg/kg: 83%

## COCc1ccc(C(C)=O)c2sc(C(=O)Nc3ccc4c(COC(=O)[C@@H](N)C(C)C)cccc4n3)c(C)c12 [Example 84, (S)-(2-(7-Acetyl-4-(methoxymethyl)-3-methylbenzo[b]thiophene-2-carboxamido)quinolin-5-yl)methyl-2-amino-3-methylbutanoate]
[1]
  IC50: 7.1 nM
[2]
  inhibition in vivo at 10 mg/kg: 92%

## COCc1ccc(C(C)=O)c2sc(C(=O)Nc3ccc4c(C(=O)N5CC(O)C5)cccc4n3)c(C)c12 [Example 101, 7-Acetyl-N-(5-((3-hydroxyazetidin-1-yl)carbonyl)quinolin-2-yl)-4-(methoxymethyl)-3-methylbenzo[b]thiophene-2-carboxamide]
[1]
  IC50: 0.11 nM
[2]
  inhibition in vivo at 10 mg/kg: 35%

## COCc1ccc(C(C)=O)c2sc(C(=O)Nc3ccc4c(C(=O)N5CCN(C)CC5)cccc4n3)c(C)c12 [Example 96, 7-Acetyl-4-(methoxymethyl)-3-methyl-N-(5-((4-methylpiperazin-1-yl)carbonyl)quinolin-2-yl)benzo[b]thiophene-2-carboxamide]
[2]
  inhibition in vivo at 10 mg/kg: 65%

## COCc1ccc(C(C)=O)c2sc(C(=O)Nc3cc(CN4CCC(O)CC4)c4ccccc4n3)c(C)c12 [Example 36, 7-Acetyl-N-(4-((4-hydroxypiperidin-1-yl)methyl)quinolin-2-yl)-4-(methoxymethyl)-3-methylbenzo[b]thiophene-2-carboxamide]
[1]
  IC50: 0.35 nM
[2]
  inhibition in vivo at 10 mg/kg: 69%

## COCc1ccc(C(C)=O)c2sc(C(=O)Nc3ccc4c(C(=O)N(C)C)cccc4n3)c(C)c12 [Example 97, 2-(7-Acetyl-4-(methoxymethyl)-3-methylbenzo[b]thiophene-2-carboxamido)-N,N-dimethylquinoline-5-carboxamide]
[1]
  IC50: 0.26 nM
[2]
  inhibition in vivo at 10 mg/kg: 50%

## [2H]C([2H])([2H])OCc1ccc(C(C)=O)c2sc(C(=O)Nc3ccc4c(CO)cccc4n3)c(C)c12 [Example 120, 7-Acetyl-N-(5-(hydroxymethyl)quinolin-2-yl)-4-((^2H3)methoxymethyl)-3-methylbenzo[b]thiophene-2-carboxamide]
[2]
  inhibition in vivo at 10 mg/kg: 52%

## [2H]C([2H])([2H])OCc1cccc2nc(NC(=O)c3sc4c(C(C)=O)ccc(COC)c4c3C)ccc12 [Example 117, 7-Acetyl-4-(methoxymethyl)-N-(5-((^2H3)methoxymethyl)quinolin-2-yl)-3-methylbenzo[b]thiophene-2-carboxamide]
[1]
  IC50: 0.61 nM
[2]
  inhibition in vivo at 10 mg/kg: 57%

## COCc1ccc(C(C)=O)c2sc(C(=O)Nc3ccc4c(CN5CC[C@@H](F)C5)cccc4n3)c(C)c12 [Example 60, (R)-7-Acetyl-N-(5-((3-fluoropyrrolidin-1-yl)methyl)quinolin-2-yl)-4-(methoxymethyl)-3-methylbenzo[b]thiophene-2-carboxamide hydrochloride]
[2]
  inhibition in vivo at 10 mg/kg: 107%

## COCc1ccc(C(C)=O)c2sc(C(=O)Nc3ccc4c(CO)cccc4n3)c(C)c12.Cl [Example 77, 7-Acetyl-N-(5-(hydroxymethyl)quinolin-2-yl)-4-(methoxymethyl)-3-methylbenzo[b]thiophene-2-carboxamide hydrochloride]
[2]
  % inhibition: 96%

## COCc1ccc(C(C)=O)c2sc(C(=O)Nc3cc(N(C)C)c4ccccc4n3)c(C)c12 [Example 55, 7-Acetyl-N-(4-(dimethylamino)quinolin-2-yl)-4-(methoxymethyl)-3-methylbenzo[b]thiophene-2-carboxamide]
[2]
  inhibition in vivo at 10 mg/kg: 127%
